Experimental data published in patent publication US20250270246A1, “LINCOSAMIDES AND USES THEREOF” (President and Fellows of Harvard College, priority 2022, published 2025).
Values after ≈ are worked out from the molar mass of the structure shown. Values joined by “and” are separate entries in the source; they are usually repeats but may differ in a detail not shown here. Identical values can stand only once. Counter-ions that a name gives are not always drawn.

What was measured:
[1] = from C=CCC[C@@H](NC(=O)[C@@H]1[C@@H]2OCC[C@@H](CC(C)C)C[C@H]2CN1C(=O)OC(C)(C)C)[C@H]1O[C@H](SCC=C)[C@H](O)[C@@H](O)[C@H]1O; rcm bond; 10-membered ring; Grubbs II (20 mol%)/benzoquinone; then HCl/MeOH; toluene; 0.2 mM; 0.33 h; 3 steps
[2] = tested on: E. coli ATCC 25922 (HAV#006); assay: MIC by broth microdilution (CLSI); type: cell-based; conditions: Escherichia coli, ATCC25922, 24 h, HAV#006, ATCC 25922; CaMHB, 24 h incubation; read-out: MIC E. coli ATCC 25922
In short: (§1)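 Cation-adjusted Mueller-Hinton medium, Chelex 100 ion-exchange treated where P. aeruginosa was tested. Twofold series 64 down to 0.06 μg/mL, 2.5% DMSO final, 5×10^5 CFU/mL inoculum, 24 h incubation; endpoint is no visible growth.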

E. coli lptD mutant = assay: MIC by broth microdilution (CLSI); type: cell-based; conditions: Escherichia coli, 24 h, read-out: MIC E. coli lptD mutant, lptD mutant / ΔlptD mutant; CaMHB, 24 h incubation
In short: as §1

[3] = tested on: E. faecalis ATCC 29212 (HAV#005); assay: MIC by broth microdilution (CLSI); type: cell-based; conditions: Enterococcus faecalis, ATCC29212, 24 h, HAV#005, ATCC 29212; CaMHB, 24 h incubation; read-out: MIC E. faecalis ATCC 29212
In short: as §1

E. faecium JMI-990536 = assay: MIC by broth microdilution (CLSI); type: cell-based; conditions: Enterococcus faecium, JMI990536, 24 h, JMI-990536; CaMHB, 24 h incubation; read-out: MIC E. faecium JMI-990536
In short: as §1

H. influenzae ATCC 49247 = assay: MIC by broth microdilution (CLSI); type: cell-based; conditions: Haemophilus influenzae, ATCC49247; ATCC 49247; 24 h incubation; read-out: MIC H. influenzae ATCC 49247
In short: as §1

K. pneumoniae JMI-991193 = assay: MIC by broth microdilution (CLSI); type: cell-based; conditions: Klebsiella pneumoniae, JMI991193, 24 h, JMI-991193; CaMHB, 24 h incubation; read-out: MIC K. pneumoniae JMI-991193
In short: as §1

[4] = tested on: M. catarrhalis ATCC 25238; assay: MIC by broth microdilution (CLSI); type: cell-based; conditions: Moraxella catarrhalis, ATCC25238, 24 h incubation
In short: as §1

[5] = tested on: S. aureus ATCC 29213 (HAV#001); assay: MIC by broth microdilution (CLSI); type: cell-based; conditions: Staphylococcus aureus, ATCC29213, 24 h, HAV#001, ATCC 29213; CaMHB, 24 h incubation; read-out: MIC S. aureus ATCC 29213
In short: as §1

S. aureus Clinical (cfr) = assay: MIC by broth microdilution (CLSI); type: cell-based; conditions: Staphylococcus aureus, 24 h, Clinical (cfr); CaMHB, 24 h incubation; read-out: MIC S. aureus Clinical (cfr)
In short: as §1

S. aureus MMX 3035 = assay: MIC by broth microdilution (CLSI); type: cell-based; conditions: Staphylococcus aureus, MMX3035, 24 h, MMX 3035; CaMHB, 24 h incubation; read-out: MIC S. aureus MMX 3035
In short: as §1

S. pneumoniae c-ermB = assay: MIC by broth microdilution (CLSI); type: cell-based; conditions: Streptococcus pneumoniae, 24 h, read-out: MIC S. pneumoniae c-ermB
In short: as §1

[6] = tested on: P. aeruginosa ATCC 27853 (HAV#009); assay: MIC by broth microdilution (CLSI), Chelex 100-treated broth; type: cell-based; conditions: Pseudomonas aeruginosa, ATCC27853; HAV#009, ATCC 27853; CaMHB pre-treated with Chelex 100 ion exchange resin, 24 h
Protocol: Minimum inhibitory concentrations (MICs) were determined by the broth microdilution method following the Clinical and Laboratory Standards Institute (CLSI) guidelines. Test organisms consisted of standard reference strains from the American Type Culture Collection (ATCC; Manassa, VA, USA) and clinical isolates obtained from JMI Laboratories Inc. (North Liberty, IA, USA), Micromyx repository (MMX; Kalamazoo, MI, USA), and Massachusetts Eye and Ear Hospital (Boston, USA). Before the start of the MIC experiment, standard and test compound stock solutions were prepared in dimethyl sulfoxide (DMSO, Aldrich D2650) at a stock concentration of 2,560 μg/mL. The compound concentration range typically employed for each experiment was 64-0.06 μg/mL (2.5% final DMSO concentration). Iboxamycin was used as a comparator in all experiments. All bacterial strains were sub-cultured on blood agar plates (tryptic soy agar with 5% sheep blood, Hardy Diagnostics) and incubated overnight at 35° C. Organisms were suspended in cation-adjusted Mueller-Hinton broth (CaMHB, BD 212322) and optical density was adjusted to 0.5 McFarland standard. Suspensions were further diluted to obtain a final inoculum of 5×10^5 CFU/mL for broth microdilution experiments. The minimum concentration of compound required to inhibit visible bacterial growth after 24 h of incubation was recorded as the MIC in μg/mL. MICs for P. aeruginosa were recorded in cation-adjusted Mueller-Hinton broth which had been pre-treated with Chelex 100 ion exchange resin according to procedures reported in Ito et al. Antimicrob Agents Chemother (2016) 60 (12), 7396-7401.

E. coli HAV#038, ΔTolC = assay: MIC by broth microdilution (CLSI); type: cell-based; conditions: Escherichia coli, 24 h, read-out: MIC E. coli HAV#038, ΔTolC
In short: as §1

E. coli HAV#040, LptD = assay: MIC by broth microdilution (CLSI); type: cell-based; conditions: Escherichia coli, 24 h, read-out: MIC E. coli HAV#040, LptD
In short: as §1

[7] = tested on: E. faecium HAV#318, VRE; clinical; assay: MIC by broth microdilution (CLSI); type: cell-based; conditions: Enterococcus faecium, CaMHB, 24 h incubation, read-out: MIC E. faecium HAV#318, VRE
In short: as §1

[8] = tested on: K. oxytoca HAV#450; Clinical; assay: MIC by broth microdilution (CLSI); type: cell-based; conditions: Klebsiella oxytoca, CaMHB, 24 h incubation, read-out: MIC K. oxytoca HAV#450
In short: as §1

S. aureus HAV#016, MRSA = assay: MIC by broth microdilution (CLSI); type: cell-based; conditions: Staphylococcus aureus, CaMHB, 24 h incubation
In short: as §1

[9] = tested on: S. aureus HAV#202, ATCC 700699; assay: MIC by broth microdilution (CLSI); type: cell-based; conditions: Staphylococcus aureus, ATCC700699, CaMHB, 24 h incubation
In short: as §1

[10] = tested on: S. pneumoniae HAV#003, ATCC 49619; assay: MIC by broth microdilution (CLSI); type: cell-based; conditions: Streptococcus pneumoniae, ATCC49619, CaMHB, 24 h incubation
In short: as §1

[11] = tested on: S. pyogenes HAV#004, ATCC 19615; assay: MIC by broth microdilution (CLSI); type: cell-based; conditions: Streptococcus pyogenes, ATCC19615, CaMHB, 24 h incubation
In short: as §1

Compound | MIC [2] | MIC (E. coli lptD mutant) | MIC [3] | MIC (E. faecium JMI-990536) | MIC (H. influenzae ATCC 49247) | MIC (K. pneumoniae JMI-991193) | MIC [4] | MIC [5] | MIC (S. aureus Clinical (cfr)) | MIC (S. aureus MMX 3035) | MIC (S. pneumoniae c-ermB) | MIC [6] | MIC (E. coli HAV#038, ΔTolC) | MIC (E. coli HAV#040, LptD) | MIC [7] | MIC [8] | MIC (S. aureus HAV#016, MRSA) | MIC [9] | MIC [10] | MIC [11] | further results
CC(C)C[C@@H]1CCO[C@@H]2[C@@H](C1)CN(C(=O)OC(C)(C)C)[C@@H]2C(=O)N[C@@H]1CCC=CCS[C@H]2O[C@H]1[C@H](O)[C@H](O)[C@H]2O |  |  |  |  |  |  |  |  |  |  |  |  |  |  |  |  |  |  |  |  | ring closure, yield after HPLC [1]: 1.3% and 1.7%
CC(C)C[C@@H]1CCO[C@@H]2[C@H](CN[C@@H]2C(=O)N[C@H]2[C@H]3O[C@H](SCCCC/C=C/[C@H]2C)[C@H](O)[C@@H](O)[C@H]3O)C1 [FSA1610016, (4S,5aS,8S,8aR)-4-isobutyl-N-((1R,9R,10R,11R,12R,13S,14R,E)-12,13,14-trihydroxy-9-methyl-15-oxa-2-thiabicyclo[9.3.1]pentadec-7-en-10-yl) octahydro-2H-oxepino[2,3-c]pyrrole-8-carboxamide] | 16 µg/mL (≈ 30.4 µM) | 2 µg/mL (≈ 3.8 µM) | 0.25 µg/mL (≈ 0.475 µM) | 4 µg/mL (≈ 7.59 µM) | ≤ 0.06 µg/mL | 32 µg/mL (≈ 60.8 µM) | 2 µg/mL (≈ 3.8 µM) | 0.125 µg/mL (≈ 0.237 µM) | 16 µg/mL (≈ 30.4 µM) | 16 µg/mL (≈ 30.4 µM) | 8 µg/mL (≈ 15.2 µM) | 4 µg/mL (≈ 7.59 µM) |  |  |  |  |  |  |  |  | 
CC(C)C[C@@H]1CCO[C@@H]2[C@H](CN[C@@H]2C(=O)N[C@H]2[C@H]3O[C@H](SCCCC/C=C\[C@H]2C)[C@H](O)[C@@H](O)[C@H]3O)C1 [FSA1610015, (4S,5aS,8S,8aR)-4-isobutyl-N-((1R,9R,10R,11R,12R,13S,14R,Z)-12,13,14-trihydroxy-9-methyl-15-oxa-2-thiabicyclo[9.3.1]pentadec-7-en-10-yl) octahydro-2H-oxepino[2,3-c]pyrrole-8-carboxamide] | 8 µg/mL (≈ 15.2 µM) | 1 µg/mL (≈ 1.9 µM) | 0.25 µg/mL (≈ 0.475 µM) | 1 µg/mL (≈ 1.9 µM) | ≤ 0.06 µg/mL | 32 µg/mL (≈ 60.8 µM) | 1 µg/mL (≈ 1.9 µM) | 0.125 µg/mL (≈ 0.237 µM) | 2 µg/mL (≈ 3.8 µM) | 8 µg/mL (≈ 15.2 µM) | 4 µg/mL (≈ 7.59 µM) | 4 µg/mL (≈ 7.59 µM) |  |  |  |  |  |  |  |  | 
CC(C)C[C@@H]1CCO[C@@H]2[C@H](CN[C@@H]2C(=O)N[C@@H]2CCCCCS[C@H]3O[C@H]2[C@H](O)[C@H](O)[C@H]3O)C1 [FSA1503058, (4S,5aS,8S,8aR)-4-isobutyl-N-((1R,8R,9R,10R,11S,12R)-10,11,12-trihydroxy-13-oxa-2-thiabicyclo[7.3.1]tridecan-8-yl) octahydro-2H-oxepino[2,3-c]pyrrole-8-carboxamide formate salt] | 16 µg/mL |  |  |  |  |  |  | 0.125 µg/mL |  |  |  |  | 1 µg/mL | 4 µg/mL | 2 µg/mL | 32 µg/mL | 0.125 µg/mL | 4 µg/mL | ≤ 0.03 µg/mL | ≤ 0.03 µg/mL | 
CC(C)C[C@@H]1CCO[C@@H]2[C@H](CN[C@@H]2C(=O)N[C@H]2[C@H]3O[C@H](SCCCC/C=C/[C@@H]2C)[C@H](O)[C@@H](O)[C@H]3O)C1 [FSA1610014, (4S,5aS,8S,8aR)-4-isobutyl-N-((1R,9S,10R,11R,12R,13S,14R,E)-12,13,14-trihydroxy-9-methyl-15-oxa-2-thiabicyclo[9.3.1]pentadec-7-en-10-yl) octahydro-2H-oxepino[2,3-c]pyrrole-8-carboxamide] | > 32 µg/mL | 16 µg/mL (≈ 30.4 µM) | 2 µg/mL (≈ 3.8 µM) | 32 µg/mL (≈ 60.8 µM) | 0.25 µg/mL (≈ 0.475 µM) | > 32 µg/mL | 16 µg/mL (≈ 30.4 µM) | 0.5 µg/mL (≈ 0.949 µM) | 32 µg/mL (≈ 60.8 µM) | 32 µg/mL (≈ 60.8 µM) | 16 µg/mL (≈ 30.4 µM) | 32 µg/mL (≈ 60.8 µM) |  |  |  |  |  |  |  |  | 
CC(C)C[C@@H]1CCO[C@@H]2[C@H](CN[C@@H]2C(=O)N[C@@H]2CC/C=C\CSC3OC2C(O)C(O)C3O)C1 (stereo partly drawn) [FSA1503055, (4S,5aS,8S,8aR)-4-isobutyl-N-((1R,8R,9R,10R,11S,12R,Z)-10,11,12-trihydroxy-13-oxa-2-thiabicyclo[7.3.1]tridec-4-en-8-yl) octahydro-2H-oxepino[2,3-c]pyrrole-8-carboxamide formate salt] | > 64 µg/mL |  |  |  |  |  |  | 0.5 µg/mL |  |  |  |  | 16 µg/mL | 64 µg/mL | 4 µg/mL | > 64 µg/mL | 0.5 µg/mL | 32 µg/mL | 0.25 µg/mL | 0.125 µg/mL | 
